# From patent US10683272B2 (THE JOHNS HOPKINS UNIVERSITY, priority 2014, dated 2020)
# Read-outs that look alike come from different tables or passages of the source. Where a SMILES comes first, the peptide text is derived from it. [ ]: non-standard residue; d: D form. The star is where a group is joined. ξ: configuration not given here. X1 = O=C(O)CC[C@H](NC(=O)N[C@@H](CCCCNC(=O)CCCCCCC(=O)*)C(=O)O)C(=O)O; DOTA = O=C(O)CN1CCN(CC(=O)O)CCN(CC(=O)*)CCN(CC(=O)O)CC1; ξF = NC(Cc1ccccc1)C(=O)O
# Tests used:
# [1] = target: PSMA (Homo sapiens, UniProt Q04609); assay: PSMA inhibitory activities, fluorescence-based assay (Example 3); assay type: biochemical
# Chain of PSMA (Q04609 whole entry): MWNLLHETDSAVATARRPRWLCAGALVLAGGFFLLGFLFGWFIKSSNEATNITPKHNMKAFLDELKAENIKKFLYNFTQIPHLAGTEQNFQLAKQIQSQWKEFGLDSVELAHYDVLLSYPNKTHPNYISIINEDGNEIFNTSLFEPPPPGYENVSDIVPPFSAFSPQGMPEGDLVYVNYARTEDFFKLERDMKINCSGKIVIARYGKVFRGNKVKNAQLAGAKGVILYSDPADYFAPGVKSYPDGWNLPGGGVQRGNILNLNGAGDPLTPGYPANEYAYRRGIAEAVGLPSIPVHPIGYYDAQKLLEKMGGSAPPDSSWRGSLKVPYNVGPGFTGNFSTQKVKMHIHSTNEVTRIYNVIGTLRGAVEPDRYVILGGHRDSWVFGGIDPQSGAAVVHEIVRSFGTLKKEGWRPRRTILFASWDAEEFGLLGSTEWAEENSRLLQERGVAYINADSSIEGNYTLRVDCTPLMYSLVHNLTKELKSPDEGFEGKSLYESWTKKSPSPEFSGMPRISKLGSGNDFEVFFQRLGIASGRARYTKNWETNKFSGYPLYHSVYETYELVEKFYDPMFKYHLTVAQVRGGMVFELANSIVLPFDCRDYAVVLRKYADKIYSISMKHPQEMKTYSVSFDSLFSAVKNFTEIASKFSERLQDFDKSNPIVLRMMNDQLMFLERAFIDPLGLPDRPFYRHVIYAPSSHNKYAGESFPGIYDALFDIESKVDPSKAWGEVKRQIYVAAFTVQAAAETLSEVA
# Description: PSMA inhibitory activities were determined using a fluorescence-based assay (Banerjee, Pullambhatla, Byun, et al., 2011). Enzyme inhibitory constants (Ki values) were generated using the Cheng-Prusoff conversion (Cheng and Prusoff, 1973). Sub-lines of the androgen independent PC-3 human prostate cancer xenograft were used (Banerjee, Pullambhatla, Byun, et al., 2011). Those sub-lines have been modified to express high (PC-3 PIP) or naturally produce low (PC-3 flu) levels of PSMA (Dr. Warren Heston, Cleveland Clinic, Cleveland, Ohio).
# [2] = system: PC-3 PIP and PC-3 flu tumors
structure (smiles),measurement,setting,value
O=C([O-])CN1CCN(CC(=O)[O-])CCN(CC(=O)NC(Cc2ccccc2)C(=O)NC(Cc2ccccc2)C(=O)NC(Cc2ccccc2)C(=O)N[C@@H](CCCCNC(=O)CCCCCCC(=O)NCCCC[C@H](NC(=O)N[C@@H](CCC(=O)O)C(=O)O)C(=O)O)C(=O)O)CCN(CC(=O)[O-])CC1.[Y+3] (stereo partly shown) [^89Y-5] ({DOTA}-[ξF][ξF][ξF]K(X1)-OH),Ki,[1],0.1 nM
O=C([O-])CN1CCN(CC(=O)O)CCN(CC(=O)[O-])CC(Cc2ccc(NC(=S)NCCCCNC(=O)CCCCCCC(=O)NCCCC[C@H](NC(=O)N[C@@H](CCC(=O)O)C(=O)O)C(=O)O)cc2)N(CC(=O)[O-])CC1.[Y+3] (stereo partly shown) [^89Y-6],Ki,[1],2.99 nM
"O=C(O)CC[C@H](NC(=O)N[C@@H](CCCCNC(=O)CCCCCCC(=O)NCCCCNC(=S)Nc1ccc(CC2CN(CC(=O)O)CCN(CC(=O)O)CCN(CC(=O)O)CCN2CC(=O)O)cc1)C(=O)O)C(=O)O (stereo partly drawn) [Compound 6, (21S,25S)-8,15,23-trioxo-1-((4-((1,4,7,10-tetrakis(carboxymethyl)-1,4,7,10-tetraazacyclododecan-2-yl)methyl)phenyl)amino)-1-thioxo-2,7,16,22,24-pentaazaheptacosane-21,25,27-tricarboxylic acid]",Ki,[1],1.8 nM
O=C(O)CC[C@H](NC(=O)N[C@@H](CCCCNC(=O)CCCCCCC(=O)NCCCCNC(=S)Nc1ccc(CC2CN(CC(=O)O)CCN(CC(=O)O)CCN(CC(=O)O)CCN2CC(=O)O)cc1)C(=O)O)C(=O)O.[203Pb+2] (stereo partly shown) [^203Pb-SR-VI-71],PIP/flu ratio,[2]; 1 H,98
same,"Tissue biodistribution, Blood",[2]; 1 H,0.60 ± 0.05
same,"Tissue biodistribution, PC-3 PIP",[2]; 1 H,41.88 ± 7.60
same,"Tissue biodistribution, PC-3 flu",[2]; 1 H,0.43 ± 0.11
same,"Tissue biodistribution, Sm intestine",[2]; 1 H,0.31 ± 0.05
same,"Tissue biodistribution, bladder",[2]; 1 H,5.96 ± 2.24
same,"Tissue biodistribution, fat",[2]; 1 H,0.77 ± 0.29
same,"Tissue biodistribution, heart",[2]; 1 H,0.30 ± 0.03
same,"Tissue biodistribution, kidney",[2]; 1 H,75.18 ± 9.94
same,"Tissue biodistribution, liver",[2]; 1 H,1.09 ± 0.07
same,"Tissue biodistribution, lung",[2]; 1 H,1.20 ± 0.19
same,"Tissue biodistribution, muscle",[2]; 1 H,0.22 ± 0.14
same,"Tissue biodistribution, pancreas",[2]; 1 H,0.49 ± 0.09
same,"Tissue biodistribution, salivary gland",[2]; 1 H,1.78 ± 0.69
same,"Tissue biodistribution, spleen",[2]; 1 H,5.07 ± 1.68
same,"Tissue biodistribution, stomach",[2]; 1 H,0.30 ± 0.04
same,PIP/flu ratio,[2]; 2 H,130
same,"Tissue biodistribution, Blood",[2]; 2 H,0.31 ± 0.04
same,"Tissue biodistribution, PC-3 PIP",[2]; 2 H,38.14 ± 6.30
same,"Tissue biodistribution, PC-3 flu",[2]; 2 H,0.29 ± 0.14
same,"Tissue biodistribution, Sm intestine",[2]; 2 H,0.23 ± 0.04
same,"Tissue biodistribution, bladder",[2]; 2 H,10.40 ± 3.21
same,"Tissue biodistribution, fat",[2]; 2 H,0.31 ± 0.22
same,"Tissue biodistribution, heart",[2]; 2 H,0.14 ± 0.06
same,"Tissue biodistribution, kidney",[2]; 2 H,39.35 ± 7.28
same,"Tissue biodistribution, liver",[2]; 2 H,1.01 ± 0.21
same,"Tissue biodistribution, lung",[2]; 2 H,0.64 ± 0.14
same,"Tissue biodistribution, muscle",[2]; 2 H,0.22 ± 0.07
same,"Tissue biodistribution, pancreas",[2]; 2 H,0.29 ± 0.05
same,"Tissue biodistribution, salivary gland",[2]; 2 H,0.93 ± 0.07
same,"Tissue biodistribution, spleen",[2]; 2 H,1.59 ± 0.58
same,"Tissue biodistribution, stomach",[2]; 2 H,0.15 ± 0.03
same,PIP/flu ratio,[2]; 4 H,178
same,"Tissue biodistribution, Blood",[2]; 4 H,0.24 ± 0.02
same,"Tissue biodistribution, PC-3 PIP",[2]; 4 H,34.74 ± 7.37
same,"Tissue biodistribution, PC-3 flu",[2]; 4 H,0.20 ± 0.06
same,"Tissue biodistribution, Sm intestine",[2]; 4 H,0.15 ± 0.04
same,"Tissue biodistribution, bladder",[2]; 4 H,1.94 ± 0.49
same,"Tissue biodistribution, fat",[2]; 4 H,0.31 ± 0.18
same,"Tissue biodistribution, heart",[2]; 4 H,0.09 ± 0.01
same,"Tissue biodistribution, kidney",[2]; 4 H,22.75 ± 6.22
same,"Tissue biodistribution, liver",[2]; 4 H,0.92 ± 0.09
same,"Tissue biodistribution, lung",[2]; 4 H,0.28 ± 0.04
same,"Tissue biodistribution, muscle",[2]; 4 H,0.06 ± 0.02
same,"Tissue biodistribution, pancreas",[2]; 4 H,0.24 ± 0.05
same,"Tissue biodistribution, salivary gland",[2]; 4 H,0.29 ± 0.02
same,"Tissue biodistribution, spleen",[2]; 4 H,0.72 ± 0.16
same,"Tissue biodistribution, stomach",[2]; 4 H,0.13 ± 0.03
same,PIP/flu ratio,[2]; 24 H,194
same,"Tissue biodistribution, Blood",[2]; 24 H,0.21 ± 0.02
same,"Tissue biodistribution, PC-3 PIP",[2]; 24 H,27.92 ± 7.01
same,"Tissue biodistribution, PC-3 flu",[2]; 24 H,0.14 ± 0.01
same,"Tissue biodistribution, Sm intestine",[2]; 24 H,0.04 ± 0.03
same,"Tissue biodistribution, bladder",[2]; 24 H,0.31 ± 0.16
same,"Tissue biodistribution, fat",[2]; 24 H,0.05 ± 0.06
same,"Tissue biodistribution, heart",[2]; 24 H,0.07 ± 0.01
same,"Tissue biodistribution, kidney",[2]; 24 H,7.01 ± 0.80
same,"Tissue biodistribution, liver",[2]; 24 H,0.64 ± 0.04
same,"Tissue biodistribution, lung",[2]; 24 H,0.16 ± 0.01
same,"Tissue biodistribution, muscle",[2]; 24 H,0.04 ± 0.03
same,"Tissue biodistribution, pancreas",[2]; 24 H,0.09 ± 0.06
same,"Tissue biodistribution, salivary gland",[2]; 24 H,0.10 ± 0.05
same,"Tissue biodistribution, spleen",[2]; 24 H,0.24 ± 0.02
same,"Tissue biodistribution, stomach",[2]; 24 H,0.07 ± 0.01
NC(=O)CN1CCN(CC(N)=O)CCN(CC(N)=O)C(Cc2ccc(NC(=S)NCCCCNC(=O)CCCCCCC(=O)NCCCC[C@H](NC(=O)N[C@@H](CCC(=O)O)C(=O)O)C(=O)O)cc2)CN(CC(N)=O)CC1.[203Pb+2] (stereo partly shown) [^203Pb-SR-IX-11],PIP/flu ratio,[2]; 2 H,114
same,"Tissue biodistribution, Blood",[2]; 2 H,0.07 ± 0.01
same,"Tissue biodistribution, PC-3 PIP",[2]; 2 H,21.64 ± 1.23
same,"Tissue biodistribution, PC-3 flu",[2]; 2 H,0.19 ± 0.04
same,"Tissue biodistribution, Sm intestine",[2]; 2 H,0.25 ± 0.15
same,"Tissue biodistribution, bladder",[2]; 2 H,8.64 ± 0.77
same,"Tissue biodistribution, fat",[2]; 2 H,1.54 ± 1.64
same,"Tissue biodistribution, heart",[2]; 2 H,0.07 ± 0.01
same,"Tissue biodistribution, kidney",[2]; 2 H,3.61 ± 0.81
same,"Tissue biodistribution, liver",[2]; 2 H,0.21 ± 0.01
same,"Tissue biodistribution, lung",[2]; 2 H,0.24 ± 0.03
same,"Tissue biodistribution, muscle",[2]; 2 H,0.78 ± 0.83
same,"Tissue biodistribution, pancreas",[2]; 2 H,0.06 ± 0.00
same,"Tissue biodistribution, salivary gland",[2]; 2 H,0.35 ± 0.10
same,"Tissue biodistribution, spleen",[2]; 2 H,0.25 ± 0.1
same,"Tissue biodistribution, stomach",[2]; 2 H,0.12 ± 0.00
O=C([O-])CN1CCN(CC(=O)[O-])CCN(CC(=O)NC(Cc2ccccc2)C(=O)NC(Cc2ccccc2)C(=O)N[C@@H](CCCCNC(=O)CCCCCCC(=O)NCCCC[C@H](NC(=O)N[C@@H](CCC(=O)O)C(=O)O)C(=O)O)C(=O)O)CCN(CC(=O)[O-])CC1.[Y+3] (stereo partly shown) [^89Y-4],Ki,[1],0.36 nM
O=C(O)CC[C@H](NC(=O)N[C@@H](CCCCNC(=O)CCCCCCC(=O)NCCCC[C@H](NC(=O)C(Cc1ccccc1)NC(=O)C(Cc1ccccc1)NC(=O)C(Cc1ccccc1)NC(=O)CN1CCN(CC(=O)O)CCN(CC(=O)O)CCN(CC(=O)O)CC1)C(=O)O)C(=O)O)C(=O)O (stereo partly shown) [Compound 5],Ki,[1],3.12 nM
